From the NIST ThermoML archive (doi:10.1021/acs.jced.8b00132)
Values joined by “and” are separate entries in the source; they are usually repeats but may differ in a detail not shown here. Equal entries are not always repeated.

O=C(C(F)(F)C(F)(F)F)C(F)(C(F)(F)F)C(F)(F)F [dodecafluoro-2-methylpentan-3-one]
Details | thermal conductivity
300.81 K, 35 kPa, Gas, hot wire | 0.0117 W/m/K and 0.01167 W/m/K
300.82 K, 27 kPa, Gas, hot wire | 0.01167 W/m/K
301.02 K, 35 kPa, Gas, hot wire | 0.01175 W/m/K and 0.01169 W/m/K
301.02 K, 40 kPa, Gas, hot wire | 0.01176 W/m/K and 0.01171 W/m/K
301.04 K, 26 kPa, Gas, hot wire | 0.01169 W/m/K
301.04 K, 27 kPa, Gas, hot wire | 0.01166 W/m/K
301.12 K, 68548 kPa, Liquid, transient hot wire | 0.07848 W/m/K
301.12 K, 68619 kPa, Liquid, transient hot wire | 0.07853 W/m/K
301.16 K, 59412 kPa, Liquid, transient hot wire | 0.07633 W/m/K
301.16 K, 59421 kPa, Liquid, transient hot wire | 0.07635 W/m/K
301.2 K, 15856 kPa, Liquid, transient hot wire | 0.06469 W/m/K
301.2 K, 15861 kPa, Liquid, transient hot wire | 0.06419 W/m/K
301.2 K, 48052 kPa, Liquid, transient hot wire | 0.07348 W/m/K
301.21 K, 48059 kPa, Liquid, transient hot wire | 0.07348 W/m/K
301.23 K, 38563 kPa, Liquid, transient hot wire | 0.07045 W/m/K
301.23 K, 38570 kPa, Liquid, transient hot wire | 0.07088 W/m/K
301.25 K, 35 kPa, Gas, hot wire | 0.01177 W/m/K and 0.01172 W/m/K
301.25 K, 40 kPa, Gas, hot wire | 0.01175 W/m/K and 0.01177 W/m/K
301.26 K, 29951 kPa, Liquid, transient hot wire | 0.06831 W/m/K
301.26 K, 29959 kPa, Liquid, transient hot wire | 0.06831 W/m/K
301.27 K, 26 kPa, Gas, hot wire | 0.0117 W/m/K
301.27 K, 27 kPa, Gas, hot wire | 0.01169 W/m/K
301.27 K, 22365 kPa, Liquid, transient hot wire | 0.06588 W/m/K
301.27 K, 22366 kPa, Liquid, transient hot wire | 0.06588 W/m/K
301.29 K, 68411 kPa, Liquid, transient hot wire | 0.07844 W/m/K
301.3 K, 68477 kPa, Liquid, transient hot wire | 0.07847 W/m/K
301.31 K, 15646 kPa, Liquid, transient hot wire | 0.06353 W/m/K
301.32 K, 15647 kPa, Liquid, transient hot wire | 0.06353 W/m/K
301.32 K, 15982 kPa, Liquid, transient hot wire | 0.06426 W/m/K
301.32 K, 68614 kPa, Liquid, transient hot wire | 0.07896 W/m/K
301.33 K, 15978 kPa, Liquid, transient hot wire | 0.06437 W/m/K
301.33 K, 58469 kPa, Liquid, transient hot wire | 0.07677 W/m/K
301.33 K, 68621 kPa, Liquid, transient hot wire | 0.07913 W/m/K
301.34 K, 29983 kPa, Liquid, transient hot wire | 0.06887 W/m/K
301.34 K, 38644 kPa, Liquid, transient hot wire | 0.07116 W/m/K
301.34 K, 38645 kPa, Liquid, transient hot wire | 0.07082 W/m/K
301.34 K, 48192 kPa, Liquid, transient hot wire | 0.07381 W/m/K
301.34 K, 48193 kPa, Liquid, transient hot wire | 0.07385 W/m/K
301.34 K, 58483 kPa, Liquid, transient hot wire | 0.07689 W/m/K
301.35 K, 9734 kPa, Liquid, transient hot wire | 0.06181 W/m/K
301.35 K, 9737 kPa, Liquid, transient hot wire | 0.06163 W/m/K
301.35 K, 29988 kPa, Liquid, transient hot wire | 0.06876 W/m/K
301.35 K, 59394 kPa, Liquid, transient hot wire | 0.07632 W/m/K
301.35 K, 59405 kPa, Liquid, transient hot wire | 0.07636 W/m/K
301.36 K, 186 kPa, Liquid, transient hot wire | 0.05707 W/m/K
301.36 K, 22446 kPa, Liquid, transient hot wire | 0.0654 W/m/K
301.37 K, 186 kPa, Liquid, transient hot wire | 0.05699 W/m/K
301.37 K, 4437 kPa, Liquid, transient hot wire | 0.05962 W/m/K
301.37 K, 4442 kPa, Liquid, transient hot wire | 0.05915 W/m/K
301.37 K, 22450 kPa, Liquid, transient hot wire | 0.06542 W/m/K
301.38 K, 9940 kPa, Liquid, transient hot wire | 0.06178 W/m/K
301.39 K, 94 kPa, Liquid, transient hot wire | 0.05683 W/m/K
301.39 K, 100 kPa, Liquid, transient hot wire | 0.05659 W/m/K
301.39 K, 9943 kPa, Liquid, transient hot wire | 0.06137 W/m/K
301.39 K, 68810 kPa, Liquid, transient hot wire | 0.07913 W/m/K
301.39 K, 68825 kPa, Liquid, transient hot wire | 0.07893 W/m/K
301.4 K, 48039 kPa, Liquid, transient hot wire | 0.0735 W/m/K
301.4 K, 48041 kPa, Liquid, transient hot wire | 0.07342 W/m/K
301.41 K, 182 kPa, Liquid, transient hot wire | 0.057 W/m/K
301.42 K, 181 kPa, Liquid, transient hot wire | 0.05699 W/m/K
301.43 K, 4512 kPa, Liquid, transient hot wire | 0.0591 W/m/K
301.43 K, 4517 kPa, Liquid, transient hot wire | 0.05911 W/m/K
301.43 K, 38558 kPa, Liquid, transient hot wire | 0.0709 W/m/K
301.44 K, 38562 kPa, Liquid, transient hot wire | 0.07087 W/m/K
301.46 K, 29951 kPa, Liquid, transient hot wire | 0.06828 W/m/K
301.47 K, 29958 kPa, Liquid, transient hot wire | 0.0683 W/m/K
301.48 K, 22365 kPa, Liquid, transient hot wire | 0.06549 W/m/K
301.49 K, 22364 kPa, Liquid, transient hot wire | 0.06585 W/m/K
301.49 K, 68338 kPa, Liquid, transient hot wire | 0.07849 W/m/K
301.5 K, 35 kPa, Gas, hot wire | 0.01174 W/m/K
301.5 K, 40 kPa, Gas, hot wire | 0.01178 W/m/K
301.5 K, 41 kPa, Gas, hot wire | 0.01177 W/m/K
301.5 K, 68274 kPa, Liquid, transient hot wire | 0.07839 W/m/K
301.51 K, 35 kPa, Gas, hot wire | 0.01178 W/m/K
301.52 K, 27 kPa, Gas, hot wire | 0.01171 W/m/K
301.53 K, 27 kPa, Gas, hot wire | 0.0117 W/m/K
301.54 K, 121 kPa, Liquid, transient hot wire | 0.05731 W/m/K and 0.05707 W/m/K
301.54 K, 15641 kPa, Liquid, transient hot wire | 0.06381 W/m/K
301.54 K, 15643 kPa, Liquid, transient hot wire | 0.06352 W/m/K
301.54 K, 59383 kPa, Liquid, transient hot wire | 0.07629 W/m/K
301.54 K, 59392 kPa, Liquid, transient hot wire | 0.07615 W/m/K
301.56 K, 34 kPa, Gas, transient hot wire | 0.01199 W/m/K
301.57 K, 34 kPa, Gas, transient hot wire | 0.01211 W/m/K
301.59 K, 15866 kPa, Liquid, transient hot wire | 0.06262 W/m/K
